Laboratory results as given in patent US20020005386A1, “Water based oil dispersant” (Polychemical Corporation, priority 1999, published 2002).

What was measured:
[1] = system: Mysidopsis bahia; assay: Dispersant toxicity testing, 48 hour LC50; conditions: in vivo
Procedure: Dispersant toxicity testing was performed by Coastal Bioanalysts.
This toxicity data was obtained using the concentrated product.

[2] = Surfactant screening test, visual emulsification of Prudhoe Bay Crude in river (sea) water; conditions: 1st set: pure surfactant, 10 ml added to 100 microliter PBC in 120 ml water; shaken 50 times, stand 10 min
Procedure: 120 ml of the river (sea) water is taken in a 130 ml bottle. Add 100 micro liter(μl) of Prudhoe Bay Crude to the bottle. Add […] of the pure test surfactant. The ratio of the surfactant to oil is 1:10, as per the spec. (the only difference is instead of 100 μl of the 1:10 mixture, the volume added was 110 μl) the mix was shaken vigorously 50 times and allowed to stand 10 min. to evaluate the effectiveness of the system and compare it to COREXIT 9500 at the same ratio.
The first set was with pure surfactants, the 2nd set was with two surfactants combination with 10 μl, in a 1:3 ratio and the 3rd was with a 3 or more surfactants system with 1:3 ratio but 10 μl, 20 μl, or 30 μl addition. The results are tabulated below:
10 μl added unless otherwise stated.
A combination of the above selected surfactants was conceived and formulations with the following variations were evaluated: […]

Row | SMILES | LC50 of the Control Toxicant, M. bahia [1] | APPEARANCE STABILITY OF EMULSION [2]
1 | CCCCCCCCCCCCOS(=O)(=O)[O-].[Na+] [Dss] | The Control Toxicant (Dss): M. bahia 9.82 ppm | 
2 | CCCCCCCC/C=C\CCCCCCCC(=O)OCC(O)CO (centres unmarked) [GMO, Glyceryl mono oleate] |  | Not good
